The target in assay [1] is T1, Human immunodeficiency virus type 1 protease (Human immunodeficiency virus 1, UniProt Q72874). As to the kind of experiment: Compound was evaluated for its inhibitory activity in recombinant HIV-l protease.
The subject of a further assay is MT2. As to the kind of experiment: Compound was evaluated for its inhibitory activity against HIV-1-IIIB infected MT2 cells (human T lymphoid cells). The assay is classed as functional, cell-based.
The target in assay [2] is T1, Human immunodeficiency virus type 1 protease. The assay can be described thus: Inhibitory activity against HIV-1 protease.
Assay [3] shares this target. As to the kind of experiment: Compound was evaluated for its binding affinity against HIV-1 protease using [125I]-SPA (scintillation proximity assay). (In a scintillation proximity assay essentially only radioactivity close to the scintillant gives light.)
Assay [4] shares this target. The assay can be described thus: Compound was evaluated for its inhibitory activity against recombinant HIV-1 protease using [125I]-SPA (scintillation proximity assay).

The structures appear in SMILES notation. pIC50, pKi: −log10 of the molar value.

In the case of `CC[C@H](C)[C@H](NC(=O)[C@H](Cc1ccccc1)CC(O)C[C@@H](Cc1ccccc1)C(=O)N[C@H](C(=O)NCc1ccccn1)[C@@H](C)CC)C(=O)NCc1ccccn1`, the pIC50 – broadly, the negative decadic logarithm of the IC50, by convention in mol/L – in assay [1] is 6.35; in the assay with MT2, 6.30. Take `COC(=O)[C@H](Cc1ccccc1)NC(=O)[C@H](CC(C)C)NC(=O)[C@H](Cc1ccccc1)CC(O)C[C@@H](Cc1ccccc1)C(=O)N[C@@H](CC(C)C)C(=O)N[C@@H](Cc1ccccc1)C(=O)OC`: the values for the negative logarithm of the IC50 (pIC50) (in assay [2]; in the assay with MT2) were 7.52 and 5.64, respectively.

Regarding `CC[C@H](C)[C@H](NC(=O)[C@H](Cc1ccccc1)CC(O)C[C@@H](Cc1ccccc1)C(=O)N[C@H](C(=O)NCc1nc2ccccc2[nH]1)[C@@H](C)CC)C(=O)NCc1nc2ccccc2[nH]1`, the results for the pIC50 (in assay [2]; in the assay with MT2; in assay [4]) were 8.52, 6.40 and 4.40, respectively. In assay [3], the pKi – broadly, the Ki on a negative log10 scale, so that one unit is a factor of ten – is 8.46. In assay [2], `CC(C)CNC(=O)[C@H](Cc1ccccc1)CC(O)C[C@@H](Cc1ccccc1)C(=O)NCC(C)C` had a pIC50 of under 6.00. Same read-out and setting: for `COC(=O)[C@@H](NC(=O)[C@@H](NC(=O)[C@@H](CC(=O)C[C@@H](Cc1ccccc1)C(=O)N[C@H](C(=O)N[C@H](C(=O)OC)C(C)C)C(C)C)Cc1ccccc1)C(C)C)C(C)C` the value was under 5.00. Regarding `COC(=O)[C@@H](NC(=O)[C@@H](NC(=O)[C@H](Cc1ccccc1)CC(O)C[C@@H](Cc1ccccc1)C(=O)N[C@H](C(=O)N[C@H](C(=O)OC)C(C)C)C(C)C)C(C)C)C(C)C`, the pIC50 is 8.30 in assay [2] and 5.80 in the assay on MT2. Turning to `CCCC[C@H](CC(O)C[C@@H](CCCC)C(=O)N[C@@H](C)C(=O)N[C@@H](C)C(=O)OC)C(=O)N[C@@H](C)C(=O)N[C@@H](C)C(=O)OC`, the pIC50 in assay [2] was 7.12. On to `CC[C@H](C)[C@H](NC(=O)[C@H](Cc1ccccc1)CC(O)C[C@@H](Cc1ccccc1)C(=O)N[C@H](C(=O)NCC1CCc2ccccc2N1)[C@@H](C)CC)C(=O)NCC1CCc2ccccc2N1` (stereo not given in full), for which the pIC50 in assay [1] was 5.92; with MT2 it was 5.12. Regarding `CCCC[C@H](CC(O)C[C@@H](CCCC)C(=O)N[C@H](C(=O)N[C@H](C(=O)OC)C(C)C)C(C)C)C(=O)N[C@H](C(=O)N[C@H](C(=O)OC)C(C)C)C(C)C`, the negative-log IC50 (pIC50) in assay [2] was 8.30. Same read-out and setting: for `CCCC[C@H](CC(O)C[C@@H](CCCC)C(=O)N[C@@H](CC(C)C)C(=O)N[C@@H](Cc1ccccc1)C(=O)OC)C(=O)N[C@@H](CC(C)C)C(=O)N[C@@H](Cc1ccccc1)C(=O)OC` the value was 7.05. On to `COC(=O)[C@H](Cc1ccccc1)NC(=O)[C@@H](NC(=O)[C@H](Cc1ccccc1)CC(O)C[C@@H](Cc1ccccc1)C(=O)N[C@H](C(=O)N[C@@H](Cc1ccccc1)C(=O)OC)C(C)C)C(C)C`, for which the pIC50 in assay [2] is 8.00; with MT2 it was 5.62. In turn, `CCCC[C@H](CC1(C[C@@H](CCCC)C(=O)N[C@@H](CC(C)C)C(=O)N[C@@H](Cc2ccccc2)C(=O)OC)CO1)C(=O)N[C@@H](CC(C)C)C(=O)N[C@@H](Cc1ccccc1)C(=O)OC` showed a pIC50 in assay [2] of 6.40. Compound `CCCC[C@H](CC(O)(CO)C[C@@H](CCCC)C(=O)N[C@@H](CC(C)C)C(=O)N[C@@H](Cc1ccccc1)C(=O)OC)C(=O)N[C@@H](CC(C)C)C(=O)N[C@@H](Cc1ccccc1)C(=O)OC` showed a pIC50 in assay [2] of 5.70. As to `CC[C@H](C)[C@H](NC(=O)[C@H](Cc1ccccc1)CC(O)C[C@@H](Cc1ccccc1)C(=O)N[C@H](C(=O)NCCN1CCOCC1)[C@@H](C)CC)C(=O)NCCN1CCOCC1`, the figures for the negative-log IC50 (pIC50) (in assay [1]; with MT2) were 6.07 and under 5.00, respectively. As to `CC(C)[C@H](NC(=O)[C@H](Cc1ccccc1)CC(O)C[C@@H](Cc1ccccc1)C(=O)N[C@H](C(=O)NCc1nc2ccccc2[nH]1)C(C)C)C(=O)NCc1nc2ccccc2[nH]1`, the pIC50 is 8.00 in assay [2] and 5.68 with MT2.
